Source: PubChem BioAssay (NCI)
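Assay format: 96-well plates, 48-hour exposure. GI50 is the concentration that inhibits growth by half. At the TGI there is no net growth.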

How the values were obtained:
Assay in all cases: NCI tumour cell line growth inhibition, 48 h
SNB-19 CNS = system: SNB-19 CNS
U251 CNS = system: U251 CNS
KM12 colon = system: KM12 colon
SF-539 CNS = system: SF-539 CNS
A498 renal = system: A498 renal
HT29 colon = system: HT29 colon
K-562 leukemia = system: K-562 leukemia
SW-620 colon = system: SW-620 colon
786-0 renal = system: 786-0 renal
HOP-92 NSCLC = system: HOP-92 NSCLC

| Structure (SMILES) | TGI (SNB-19 CNS) | TGI (U251 CNS) | TGI (KM12 colon) | TGI (SF-539 CNS) | TGI (A498 renal) | TGI (HT29 colon) | TGI (K-562 leukemia) | TGI (SW-620 colon) | TGI (786-0 renal) | GI50 (SNB-19 CNS) | GI50 (U251 CNS) | GI50 (KM12 colon) | GI50 (HT29 colon) | GI50 (HOP-92 NSCLC) | TGI (HOP-92 NSCLC) | GI50 (K-562 leukemia) | GI50 (SW-620 colon) | GI50 (786-0 renal) | GI50 (SF-539 CNS) | GI50 (A498 renal) |
| --- | --- | --- | --- | --- | --- | --- | --- | --- | --- | --- | --- | --- | --- | --- | --- | --- | --- | --- | --- | --- |
| CCCCCCCCC(=O)N(C)C1C2CN3CCC(O2)C13 (configuration not stated) | > 100 µM | > 100 µM | > 100 µM | > 100 µM | > 100 µM | > 100 µM | > 100 µM | > 100 µM | > 100 µM | – | – | – | – | – | – | – | – | – | – | – |
| O=C1Nc2ccccc2C1Cc1ccc([N+](=O)[O-])cc1 (configuration not stated) | > 100 µM | > 100 µM | > 100 µM | – | – | > 100 µM | > 100 µM | > 100 µM | > 100 µM | – | – | – | – | – | – | – | – | – | – | – |
| NC(=NC1CCCCCCC1)c1ccc(N2CCN(c3ccc(C(N)=NC4CCCCCCC4)cc3)CC2)cc1 | 27.6 µM | 15.3 µM | 19.1 µM | – | – | 23.1 µM | > 100 µM | 38.5 µM | > 100 µM | 13.5 µM | 2960 nM | 5300 nM | 4.88 µM | 25.1 µM | 79.9 µM | 35.4 µM | 8910 nM | 18.9 µM | – | – |
| Cc1cc(C)c2c(c1)Nc1ccccc1P2c1ccccc1 (configuration not stated) | 83.9 µM | > 100 µM | – | – | – | > 100 µM | > 100 µM | > 100 µM | > 100 µM | – | – | – | – | – | 58.9 µM | – | – | – | – | – |
| CC1=CCC(OC(=O)C(C)(C)CCC(O)(C(=O)OC2(C(C)C)CCC3(C)OC3C2)C(C)C)(C(C)C)CC1 (configuration not stated) | 5.43 µM | 1.12 µM | 1.6 µM | 1.36 µM | 0.935 µM | 1.75 µM | – | 1.13 µM | 1.54 µM | 1.14 µM | 363 nM | 793 nM | 0.606 µM | 0.371 µM | 1.57 µM | – | 340 nM | 0.616 µM | 707 nM | 0.0508 µM |
| O=c1c2cccc3cccc(c4oc5c6cccc7cccc(c(=O)c5c14)c76)c32 | 18.6 µM | 17.4 µM | 21.2 µM | 31.5 µM | > 100 µM | 19.6 µM | – | 17 µM | 15.8 µM | – | – | – | – | – | 15.2 µM | – | – | – | – | – |
| CC(=O)Nc1ccccc1C=C1c2ccccc2-c2ccccc21 | 45.8 µM | 60.4 µM | > 100 µM | 26.5 µM | > 100 µM | > 100 µM | > 100 µM | > 100 µM | 45.2 µM | – | – | – | – | – | – | – | – | – | – | – |
| COc1ccc2c(c1)c(-c1nc(-c3c[nH]c4ncccc34)cs1)cn2CCCCN1CCOCC1 | – | 3.33 µM | 3.96 µM | 3.11 µM | 3.17 µM | 3.94 µM | 3.99 µM | 3.92 µM | 3.3 µM | – | 1730 nM | 1930 nM | 2.18 µM | 1.67 µM | 4.17 µM | 1.95 µM | 1990 nM | 1.78 µM | 1670 nM | 0.217 µM |
| O=C(O)CCSCCCN1C(=O)c2ccccc2C1=O | > 100 µM | > 100 µM | > 100 µM | > 100 µM | – | > 100 µM | > 100 µM | > 100 µM | > 100 µM | – | – | – | – | – | > 100 µM | – | – | – | – | – |
| CC1CC2C(=O)N(c3ccccc3)C(=O)C2c2c1c1ccccc1n2Cc1ccccc1 (configuration not stated) | – | – | > 100 µM | > 100 µM | – | > 100 µM | > 100 µM | > 100 µM | > 100 µM | – | – | – | – | – | > 100 µM | – | – | – | – | – |
| Cn1ccc2c(c1=O)C(=O)c1nccc3c1c-2nc1ccccc13 | 3.03 µM | 2.79 µM | – | 3.42 µM | 25.9 µM | – | – | 3.17 µM | 3.18 µM | 1.59 µM | 1380 nM | – | – | 1.81 µM | 20.4 µM | – | 1280 nM | 1.64 µM | 1830 nM | 12.5 µM |
| [C-]#[O+].[C-]#[O+].[C-]#[O+].[C-]#[O+].[Ir].[Ir].[O-]c1ccc2ccccc2c1C=Nc1ccc(N=Cc2c([O-])ccc3ccccc23)cc1 | > 100 µM | > 100 µM | > 100 µM | > 100 µM | – | > 100 µM | > 100 µM | > 100 µM | > 100 µM | 63.6 µM | > 100000 nM | > 100000 nM | > 100 µM | 40 µM | > 100 µM | 40.1 µM | > 100000 nM | 46.3 µM | > 100000 nM | – |
| N#Cc1c(N)nc(N2CCOCC2)c(C#N)c1-c1ccc(Cl)cc1 | > 100 µM | > 100 µM | – | > 100 µM | 36.3 µM | > 100 µM | > 100 µM | > 100 µM | > 100 µM | 28.1 µM | 38300 nM | – | 43.3 µM | 9 µM | 78.4 µM | > 100 µM | > 100000 nM | 70.7 µM | 49000 nM | 8.11 µM |
| O=c1c(Sc2c(O)c3ccccc3c3ccccc3c2=O)c(O)c2ccccc2c2ccccc12 | > 100 µM | 84 µM | > 100 µM | > 100 µM | – | > 100 µM | > 100 µM | > 100 µM | > 100 µM | – | – | – | – | – | > 100 µM | – | – | – | – | – |
| C=CCN(N=O)C(=O)N(CCCC(NC(C)=O)C(=O)NCc1ccccc1)Cc1ccccc1 (configuration not stated) | > 100 µM | > 100 µM | > 100 µM | > 100 µM | > 100 µM | 82.4 µM | > 100 µM | > 100 µM | > 100 µM | – | – | – | – | – | – | – | – | – | – | – |
| CC1CC(c2cccc3c2OCO3)=Nc2ccccc2S1 (configuration not stated) | > 100 µM | – | > 100 µM | > 100 µM | > 100 µM | > 100 µM | > 100 µM | > 100 µM | > 100 µM | – | – | – | – | – | > 100 µM | – | – | – | – | – |
| CC(=O)NCCSC(=O)c1ccccc1 | 15.2 µM | 0.759 µM | 2.54 µM | 1.39 µM | – | > 78.2 µM | – | – | 0.425 µM | – | – | – | – | – | 15.5 µM | – | – | – | – | – |
| Cc1ccc(NC(=O)c2cc3ccccc3c(N=Nc3ccccc3O)c2O)c(C)c1 | 6.61 µM | – | 14.8 µM | – | – | 13.8 µM | > 100 µM | 11.8 µM | 11.8 µM | – | – | – | – | – | 12.9 µM | – | – | – | – | – |
| OCC(O)C(OC1OC(CO)C(O)C(O)C1O)c1nn(-c2ccccc2)c2nc3cc(Cl)c(Cl)cc3cc12 (configuration not stated) | > 100 µM | > 100 µM | > 100 µM | > 100 µM | > 100 µM | > 100 µM | > 100 µM | – | > 100 µM | – | – | – | – | – | – | – | – | – | – | – |
| COC1(O)C(=O)c2ccccc2OC1(OC)c1ccccc1 (configuration not stated) | > 100 µM | > 100 µM | – | > 100 µM | > 100 µM | > 100 µM | > 100 µM | > 100 µM | > 100 µM | – | – | – | – | – | > 100 µM | – | – | – | – | – |
